Data taken from paper PMC3783652 (ACS chemical biology, 2013).
Marks after values point to notes of the source that are not given here. No end group written: not given here.

Tests used:
[1] = biological target: CXCL12WT self-association; conditions: in 100 mM sodium phosphate; cited from earlier work
CXCL12_1 = CXCL12_1 (Homo sapiens, UniProt P48061, I79C/L76C); assay: 2D 1H-15N HSQC NMR titration of CXCR4 peptides into CXCL12_1; format: binding; conditions: ΔG = −RT ln Kd @ 298 K
CXCL12_2 = CXCL12_2 (Homo sapiens, UniProt P48061, A86C/L57C); assay: 2D 1H-15N HSQC NMR titration of CXCR4 peptides into CXCL12_2; format: binding; conditions: ΔG = −RT ln Kd @ 298 K
CXCL12WT = CXCL12WT (Homo sapiens, UniProt P48061); conditions: ΔG = −RT ln Kd @ 298 K, calculated from Veldkamp et al.; cited from earlier work

Row | ΔG (CXCL12_1) [kcal/mol] | ΔG (CXCL12_2) [kcal/mol] | Substance | Kd of self-association [1] [µM] | ΔG (CXCL12WT)
1 |  |  | CXCL12WT: wild type chemokine CXCL12 (stromal cell-derived factor-1/SDF-1) | 140 | 
2 | -7.43 | -8.24 | GMMEGISIYTSDNYTEEMGSGDYDSMKEPCFREENANFNK [CXCR4_1–38] |  | −7.29 ^* kcal mol^−1
